Source: US7053057B2, “Caspase inhibitors and uses thereof” (Vertex Pharmaceuticals Incorporated, priority 2000, dated 2006)
Square brackets hold non-standard residues; d marks the D form. Peptide text beside a SMILES is read from it. * marks the point of attachment. Cbz = O=C(OCc1ccccc1)*; Thz = O=C(O)[CH]1CSCN1; CH2F = FC*

Key:
[1] = target: T1, recombinant, purified human Caspase-1 (Homo sapiens, UniProt P29466); test: Caspase-1 enzyme inhibition assay (fluorogenic substrate cleavage); assay type: biochemical; settings: second order rate constant of enzyme inactivation; substrate Acetyl-Tyr-Val-Ala-Asp-amino-4-methylcoumarin
T1 sequence (P29466 120-297 limits assumed): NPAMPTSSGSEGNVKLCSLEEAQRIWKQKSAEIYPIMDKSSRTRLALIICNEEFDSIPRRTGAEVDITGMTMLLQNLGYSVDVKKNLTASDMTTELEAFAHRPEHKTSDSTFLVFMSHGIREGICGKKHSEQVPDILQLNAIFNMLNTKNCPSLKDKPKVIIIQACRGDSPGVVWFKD
T1 sequence (P29466 317-404 limits assumed): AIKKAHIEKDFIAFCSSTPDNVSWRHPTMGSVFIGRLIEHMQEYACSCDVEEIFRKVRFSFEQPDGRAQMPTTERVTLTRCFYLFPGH
Excerpt: (§1) The assays for caspase inhibition are based on the cleavage of a fluorogenic substrate by recombinant, purified human Caspases -1, -3, or -8. The assays are run in essentially the same way as those reported by Garcia-Calvo et al. (J. Biol. Chem. 273 (1998), 32608–32613), using a substrate specific for each enzyme. The substrate for Caspase-1 is Acetyl-Tyr-Val-Ala-Asp-amino-4-methylcoumarin (SEQ ID NO:1). The substrate for Caspases -3, and -8 is Acetyl-Asp-Glu-Val-Asp-amino-4-methylcoumarin (SEQ ID NO:2).
(§2) The observed rate of enzyme inactivation at a particular inhibitor concentration, kobs, is computed by direct fits of the data to the equation derived by Thornberry et al. (Biochemistry 33 (1994), […]) using a nonlinear least-squares analysis computer program (PRISM 2.0; GraphPad software). To obtain the second order rate constant, kinact, kobs values are plotted against their respective inhibitor concentrations and kinact values are subsequently calculated by computerized linear regression.

[2] = target: recombinant, purified human Caspase-8 (Homo sapiens, UniProt Q14790); test: Caspase-8 enzyme inhibition assay (fluorogenic substrate cleavage); assay type: biochemical; settings: second order rate constant of enzyme inactivation; substrate Acetyl-Asp-Glu-Val-Asp-amino-4-methylcoumarin
recombinant, purified human Caspase-8, sequence (Q14790 217-374 limits assumed): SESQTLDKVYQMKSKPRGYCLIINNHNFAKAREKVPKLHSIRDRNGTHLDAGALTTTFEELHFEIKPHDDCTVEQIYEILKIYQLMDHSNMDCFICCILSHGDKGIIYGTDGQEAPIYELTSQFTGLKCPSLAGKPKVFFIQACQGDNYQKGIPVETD
recombinant, purified human Caspase-8, sequence (Q14790 385-479 limits assumed): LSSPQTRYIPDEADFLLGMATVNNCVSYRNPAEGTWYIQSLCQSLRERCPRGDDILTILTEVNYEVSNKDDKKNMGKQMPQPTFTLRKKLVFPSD
Excerpt: as §1, §2

[3] = test system: IL-1β secretion from PBMC; test: Inhibition of IL-1β secretion from mixed population of PBMC; assay type: cell-based; settings: human PBMC, LPS 50 ng/ml, 16–18 h, mature IL-1β in supernatant
Procedure: Processing of pre-IL-1β by caspase-1 can be measured in cell culture using a variety of cell sources. Human PBMC obtained from healthy donors provides a mixed population of lymphocyte and mononuclear cells that produce a spectrum of interleukins and cytokines in response to many classes of physiological stimulators.
The test compound is dissolved in Dimethyl Sulphoxide (DMSO,Sigma #D-2650) to give a 100 mM stock solution. This is diluted in complete medium consisting of RPMI containing 10% heat inactivated FCS (Gibco BRL #10099-141), 2 mM L-Glutamine (Sigma, #G-7513), 100U penicillin and 100 μg/ml streptomycin (Sigma #P-7539). The final concentration range of test compound is from 100 μM down to 6 nM over eight dilution steps. The highest concentration of test compound is equivalent to 0.1% DMSO in the assay.
Human PBMC are isolated from Buffy Coats obtained from the blood bank using centrifugation on Ficoll-Paque leukocyte separation medium (Amersham, #17-1440-02) and the cellular assay is performed in a sterile 96 well flat-bottomed plate (Nunc). Each well contains 100 μl of the cell suspension, 1×10^5 cells, 50 µl of compound dilutions and 50 μl of LPS (Sigma #L-3012) at 50 ng/ml final concentration. Controls consist of cells +/−LPS stimulation and a serial dilution of DMSO diluted in the same way as compound. The plates are incubated for 16–18 h at 37° C. in 5% CO2 & 95% humidity atmosphere.
After 16–18 h the supernatants are harvested after centrifuging the plates at 100×g at 18° C. for 15 min and assayed for their IL-1β content. Measurement of mature IL-1[…] in the supernatant is performed using the Quantikine kits (R&D Systems) according to manufacturer's instructions. Mature IL-1β levels of about 600–1500 pg/ml are observed for PBMCs in positive control wells.
The inhibitory potency of the compounds can be represented by an IC50 value, which is the concentration of inhibitor at which 50% of the mature IL-1β is detected in the supernatant as compared to the positive controls.

[4] = test system: cortical neurons; test: Hypoxia-induced apoptosis of cortical neurons assay; assay type: cell-based, Wistar rat; settings: Cortical neurone; rat embryo cortical neurons, hypoxia 42 hours, DNA fragmentation ELISA
Procedure: Apoptosis can be induced by growth factor withdrawal and by hypoxia. This assay measures the extent of DNA fragmentation indicating the effectiveness of caspase inhibitors to prevent apoptosis. Experimental Procedure Cortical neurons were dissociated from Wistar rat embryos (E17) by a modification of the procedure of Rogers et al 1997, Brain Res Bulletin 44:131. Cerebral cortices were isolated aseptically from 15–20 Wistar rat embryos. A cell suspension was prepared by mincing the cerebral cortices and digesting them with papain. Cells were washed with ovomucoid enzyme inhibitor and DNaseI and plated onto Poly D lysine coated plates in high glucose DMEM containing 10% heat-inactivated foetal calf serum, L-glutamine, penicillin and streptomycin. The yield of neurons was 10^7 per embryo and they were 80–90% viable as assessed by Trypan blue exclusion.
Cells were seeded at 1×10^6 cells per cm^2 in 96-well plates and cultured in complete medium (in high glucose DMEM containing 10% heat-inactivated foetal calf serum, L-glutamine, penicillin and streptomycin) at 37° C. in a normal atmosphere for 48 hours prior to the hypoxia experiments. Hypoxia was performed as described (Tamatani et al.1998, Molecular Brain Research, 58:27). The normal cell medium was replaced by hypoxic medium and cells were incubated in an atmosphere of 95% N2/5% CO2 for 42 hours. For compound testing, compounds were dissolved in DMSO at 100 mM then diluted in medium and added to the culture at the beginning of the hypoxic period. Apoptosis was measured using an ELISA assay to detect DNA fragmentation (Roche). Controls included cells cultured in aerobic conditions in serum-containing medium.

[5] = target: T2, recombinant, purified human Caspase-3 (Homo sapiens, UniProt P42574); test: Caspase-3 enzyme inhibition assay (fluorogenic substrate cleavage); assay type: biochemical; settings: second order rate constant of enzyme inactivation; substrate Acetyl-Asp-Glu-Val-Asp-amino-4-methylcoumarin
T2 sequence (P42574 29-175 limits assumed): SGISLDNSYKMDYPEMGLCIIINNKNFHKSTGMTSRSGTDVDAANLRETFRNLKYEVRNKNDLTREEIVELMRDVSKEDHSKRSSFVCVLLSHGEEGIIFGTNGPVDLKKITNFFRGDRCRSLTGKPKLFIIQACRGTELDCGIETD
T2 sequence (P42574 176-277 limits assumed): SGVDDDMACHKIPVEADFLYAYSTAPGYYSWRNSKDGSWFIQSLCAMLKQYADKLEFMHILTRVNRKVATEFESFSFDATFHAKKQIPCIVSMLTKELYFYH
Excerpt: The assays for caspase inhibition are based on the cleavage of a fluorogenic substrate by recombinant, purified human Caspases -1, -3, or -8.
To obtain the second order rate constant, kinact, kobs values are plotted against their respective inhibitor concentrations and kinact values are subsequently calculated by computerized linear regression.

| SMILES | C-1 Kinact [1] | C-8 Kinact [2] | IC50 [3] [nM] | IC50 [4] [nM] | C-3 Kinact [5] |
| --- | --- | --- | --- | --- | --- |
| O=C(O)CC(NC(=O)C1CCCN1C(=O)OCc1ccccc1)C(=O)CF (stereo not drawn) [Cbz-Pro-Asp-fmk] (Cbz-Pro-Asp-CH2F; configuration not given here) | 7.5 × 1000 M^−1s^−1 | 15.5 × 1000 M^−1s^−1 | > 10000 | 2780 |  |
| O=C(O)CC(NC(=O)[C@@H]1CCCCN1C(=O)O[C@H](c1cccc(Cl)c1)C(F)(F)F)C(=O)CF (stereo partly drawn) [Example 34] | 518 × 1000 M^−1s^−1 | 839 × 1000 M^−1s^−1 |  | 463 | 181 × 1000 M^−1s^−1 |
| O=C(O)CC(NC(=O)C1CSCN1C(=O)OCc1ccccc1)C(=O)CF (stereo not drawn) [Cbz-Thz-Asp-fmk] (Cbz-[Thz]-Asp-CH2F; configuration not given here) | 227.5 × 1000 M^−1s^−1 | 12 × 1000 M^−1s^−1 | 2310 | 1560 |  |
| O=C(O)CC(NC(=O)[C@@H]1CCCCN1C(=O)OCc1cccc(Cl)c1)C(=O)CF (stereo partly drawn) [Example 5, [3S/R,(2S)]-3-(1-(3-Chlorobenzyloxycarbonyl)-2-piperidinecarboxamido)-5-fluoro-4-oxo-pentanoic acid] |  |  | 500 |  |  |
| O=C(O)CC(NC(=O)[C@@H]1CCc2ccccc2N1C(=O)OCc1ccccc1)C(=O)CF (stereo partly drawn) [Example 3, [3S/R,(2S)]-3-(1-Benzyloxycarbonyl-1,2,3,4-tetrahydro-quinolinyl-2-carboxamido)-5-fluoro-4-oxo-pentanoic acid] | 318 × 1000 M^−1s^−1 | 122 × 1000 M^−1s^−1 | 1150 |  | 239.5 × 1000 M^−1s^−1 |
| CC(C)[C@H](NC(=O)OCc1ccc(Cl)cc1)C(=O)NC(CC(=O)O)C(=O)CF (stereo partly drawn) [4-ClCbz-Val-Asp-fmk] | 69 × 1000 M^−1s^−1 | 175 × 1000 M^−1s^−1 |  | 1980 |  |
| O=C(O)CC(NC(=O)[C@@H]1CCCCN1C(=O)OCc1cc(Cl)ccc1Cl)C(=O)CF (stereo partly drawn) [Example 23, [3S/R,(2S)]-5-Fluoro-3-(1-(2,5-dichlorobenzyloxycarbonyl)-2-piperidinecarboxamido)-4-oxo-pentanoic acid] |  |  |  | 336 |  |
